Read-outs that look alike come from different tables or passages of the source. Some results are limits rather than exact numbers.

As a reminder, the inhibition of growth is the share of the control response that was lost under treatment. As a reminder, the melting point is the temperature, or range, at which the solid turns liquid.

Data set [1] deals with Monographella nivalis (Microdochium nivale). Kind of data set: Monographella nivalis (Microdochium nivale)/Liquid Culture (Foot Rot Cereals). Format: cell-based. Particulars: liquid culture, compared to untreated control. The method, boiled down:
(§1)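 Liquid-culture format using potato dextrose broth inoculated directly with cryopreserved conidia, dosed with compound from a DMSO solution.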

The subject of data set [2] is Alternaria solani. Description: Alternaria solani/Tomato/Leaf Disc (Early Blight). The class given is in vivo. Particulars: foliar, tomato leaf disc, compared to untreated control. The protocol: Tomato leaf disks cv. Baby are placed on agar in multiwell plates (24-well format) and sprayed with the formulated test compound diluted in water. The leaf disks are inoculated with a spore suspension of the fungus 2 days after application. The inoculated leaf disks are incubated at 23° C./21° C. (day/night) and 80% rh (relative humidity) under a light regime of 12/12 h (light/dark) in a climate cabinet and the activity of a compound is assessed as percent disease control compared to untreated when an appropriate level of disease damage appears on untreated check disk leaf disks (5-7 days after application).

For data set [3], the system named is Blumeria graminis f. sp. tritici (Erysiphe graminis f. sp. tritici). Description: Blumeria graminis f. sp. tritici/Wheat/Leaf Disc Preventative (Powdery Mildew on Wheat). Particulars: foliar, wheat leaf disc preventative, compared to untreated control. Format: in vivo. The method, boiled down: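 Preventative leaf-disc test: percent disease control versus untreated leaf segments read 6-8 days post-application. Compound spray applied to wheat cv. Kanzler segments on agar one day before shaking infected plants over them; incubation at 20° C and 60% rh, 24 h darkness then 12 h light/12 h dark cycles.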

The test system of data set [4] is Puccinia recondita f. sp. tritici. Description: Puccinia recondita f. sp. tritici/Wheat/Leaf Disc Curative (Brown Rust). The class given is in vivo. Particulars: foliar, wheat leaf disc curative, compared to untreated control. The method, boiled down: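 Formulated compound, diluted in water, is applied to inoculated wheat cv. Kanzler leaf segments on agar one day post-inoculation (pre-incubation dark, 19° C, 75% rh). After 6-8 days at 19° C, 75% rh and 12 h/12 h light, activity is rated as percent disease control relative to untreated segments.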

Data set [5] has as its system Botryotinia fuckeliana (Botrytis cinerea). Description: Botryotinia fuckeliana (Botrytis cinerea)/Liquid Culture (Gray Mould). The class given is cell-based. Particulars: liquid culture, compared to untreated control. The protocol: Conidia of the fungus from cryogenic storage are directly mixed into nutrient broth (Vogels broth). After placing a (DMSO) solution of test compound into a microtiter plate (96-well format), the nutrient broth containing the fungal spores is added.

For data set [6], the system named is Glomerella lagenarium (Colletotrichum lagenarium). Kind of data set: Glomerella lagenarium (Colletotrichum lagenarium)/Liquid Culture (Anthracnose). Particulars: Colletotrichum orbiculare, liquid culture, compared to untreated control. Format: cell-based.
The test system of data set [7] is Mycosphaerella graminicola (Septoria tritici). Description: Mycosphaerella graminicola (Septoria tritici)/Liquid Culture (Septoria Blotch). Particulars: Zymoseptoria tritici; 20 ppm; liquid culture; compared to untreated control. Format: cell-based. The essentials:
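Results given as % disease control: test compound in DMSO was placed in wells first, then potato dextrose broth carrying cryostored fungal conidia was added.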

For data set [8], the system named is Mycosphaerella arachidis (Cercospora arachidicola). Description: Mycosphaerella arachidis (Cercospora arachidicola)/Liquid Culture (Early Leaf Spot). Format: cell-based. Particulars: liquid culture, compared to untreated control. The method, boiled down:
as §1

Data set [9] relates to Puccinia recondita f. sp. tritici. Kind of data set: Puccinia recondita f. sp. tritici/Wheat/Leaf Disc Preventative (Brown Rust). Format: in vivo. Particulars: foliar, 200 ppm, wheat leaf disc preventative, compared to untreated control, read-out: control of Puccinia recondita f. sp. tritici.
In data set [10] the test system is Magnaporthe grisea (Pyricularia oryzae). Kind of data set: whole plant or invertebrate. Format: in vivo. Particulars: foliar, read-out: control of Magnaporthe grisea.
Data set [11] deals with Phaeosphaeria nodorum (Septoria nodorum). Description: Phaeosphaeria nodorum (Septoria nodorum)/Wheat/Leaf Disc Preventative (Glume Blotch). The class given is in vivo. Particulars: Parastagonospora nodorum, foliar, wheat leaf disc preventative, compared to untreated control. The essentials:
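Preventative test: compound spray first, then spore inoculation after 2 days on cv. Kanzler wheat leaf segments. Incubation in a climate cabinet at 20 °C and 75% rh under a 12 h light/12 h dark cycle. Activity rated as % control relative to untreated discs at 5–7 days post-application.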

For data set [12], the system named is Plasmopara viticola. Kind of data set: whole plant or invertebrate. The class given is in vivo. Particulars: foliar, read-out: control of Plasmopara viticola.
The test system of data set [13] is Phytophthora infestans. Kind of data set: whole plant or invertebrate. The class given is in vivo. Particulars: in Solanum lycopersicum, foliar, read-out: control of Phytophthora infestans.
The subject of data set [14] is Phakopsora pachyrhizi. Description: Phakopsora pachyrhizi/Soybean/Preventative (Soybean Rust). Format: in vivo. Particulars: 288 h.
In data set [15] the test system is Pyrenophora teres. Kind of data set: Pyrenophora teres/Barley/Leaf Disc Preventative (Net Blotch). The class given is in vivo. Particulars: foliar, 200 ppm, barley leaf disc preventative, compared to untreated control, read-out: control of Pyrenophora teres. The essentials: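 Preventative leaf-disc test: inoculation with fungal spores took place 2 days after spraying segments of barley cv. Hasso, placed on agar, with water-diluted formulated compound. Read-out is % disease control per compound.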

[16] abbreviates: foliar, soybean leaf disc preventative, compared to untreated control, read-out: control of Phakopsora pachyrhizi.

With `CO/C=C(\Oc1cc(-n2ccc(C(F)(F)F)n2)c(C)cc1C)C(=O)OC` [Compound E-16, methyl (Z)-2-[2,4-dimethyl-5-[3-(trifluoromethyl)pyrazol-1-yl]phenoxy]-3-methoxy-prop-2-enoate], the melting point lay within 96 to 98 °C. In data set [1], this compound yielded an inhibition of growth at 20 ppm not below 80%. In addition, in data set [2], the pest or weed control at 200 ppm was not below 80%. For the same compound, the pest or weed control at 200 ppm in data set [3] was not below 80%. In [4], this compound had a pest or weed control at 200 ppm not below 80%. In addition, the inhibition of growth at 20 ppm in [5] was not below 80%. The compound further showed an inhibition of growth at 20 ppm in [6] not below 80%. In data set [7], this compound displayed an inhibition of growth at 20 ppm not below 80%. The compound further yielded an inhibition of growth at 20 ppm in data set [8] not below 80%. Also, the pest or weed control at 200 ppm in data set [9] is not below 80%.
`CO/C=C(\Oc1cc(-n2ccc(C(C)C)n2)c(Cl)cc1C)C(=O)OC` [Compound E-29, methyl (Z)-2-[4-chloro-5-(3-isopropylpyrazol-1-yl)-2-methyl-phenoxy]-3-methoxy-prop-2-enoate]: the melting point was 96 to 98 °C. Besides, in [10], the pest or weed control at 200 ppm was not below 80%. Moreover, in data set [1], the inhibition of growth at 20 ppm is not below 80%. The pest or weed control at 200 ppm in data set [2] was not below 80%. Also, the pest or weed control at 200 ppm in [3] was not below 80%. In data set [11], this compound displayed a pest or weed control at 200 ppm not below 80%. Also, the pest or weed control at 200 ppm in data set [12] is not below 80%. The pest or weed control at 200 ppm in data set [13] was not below 80%. The compound also gave a pest or weed control at 200 ppm in [4] not below 80%. The compound further returned an inhibition of growth at 20 ppm in data set [5] not below 80%. Also, the inhibition of growth at 20 ppm in data set [6] was not below 80%. This compound also showed an inhibition of growth at 20 ppm in data set [7] not below 80%. In data set [8], this compound registered an inhibition of growth at 20 ppm not below 80%. The pest or weed control at 200 ppm in data set [9] is not below 80%.
The compound `CO/C=C(\Oc1cc(-n2ccc(C)n2)c(F)cc1C)C(=O)OC` [Compound E-64, methyl (Z)-2-[4-fluoro-2-methyl-5-(3-methylpyrazol-1-yl)phenoxy]-3-methoxy-prop-2-enoate] returned a melting point of 134 to 138 °C. Also, in data set [10], the pest or weed control at 200 ppm is not below 80%. Moreover, the inhibition of growth at 20 ppm in data set [1] is not below 80%. This compound yielded a pest or weed control at 200 ppm in data set [2] not below 80%. Besides, the pest or weed control at 200 ppm in data set [3] is not below 80%. Besides, the pest or weed control at 200 ppm in data set [12] was not below 80%. The compound further displayed a pest or weed control at 200 ppm in data set [4] not below 80%. The compound further displayed an inhibition of growth at 20 ppm in data set [5] not below 80%. In data set [6], this compound returned an inhibition of growth at 20 ppm not below 80%. Besides, in data set [7], the inhibition of growth at 20 ppm is not below 80%. For the same compound, the inhibition of growth at 20 ppm in data set [8] was not below 80%. Further, the pest or weed control at 200 ppm in data set [14] (setting [16]) is not below 50%.
As to `CO/C=C(\Oc1cc(-n2ccc(Cl)n2)ccc1Br)C(=O)OC` [Compound E-85, methyl (Z)-2-[2-bromo-5-(3-chloropyrazol-1-yl)phenoxy]-3-methoxy-prop-2-enoate], the pest or weed control at 200 ppm in data set [10] is not below 80%; in data set [2] it was not below 80%; in data set [3] it was not below 80%; in [11], not below 80%; in data set [12] it was not below 80%; in data set [14] (setting [16]), not below 50%. Further, in [9], the pest or weed control at 200 ppm is not below 80%. The inhibition of growth at 20 ppm in data set [1], in data set [5], in data set [6], in data set [7] and in [8] was not below 80% throughout.
For the compound `CO/C=C(\Oc1cc(-n2ccc(C3CC3)n2)ccc1Cl)C(=O)OC` [Compound E-99, methyl (Z)-2-[2-chloro-5-(3-cyclopropylpyrazol-1-yl)phenoxy]-3-methoxy-prop-2-enoate], the pest or weed control at 200 ppm in data set [10], in data set [2], in [3], in data set [11], in data set [12] and in data set [13] was not below 80% throughout. The pest or weed control at 200 ppm in data set [4] is not below 80%; in [14] (setting [16]) it was not below 50%; in [9], not below 80%. In addition, the inhibition of growth at 20 ppm in data set [1], in data set [5], in [6], in data set [7] and in data set [8] was not below 80% each time.
On to `CCCc1cnn(-c2ccc(C)c(O/C(=C\OC)C(=O)OC)c2)n1` [Compound F-2, methyl (Z)-3-methoxy-2-[2-methyl-5-(4-propyltriazol-2-yl)phenoxy]prop-2-enoate], for which the pest or weed control at 200 ppm in data set [10], in [15], in data set [2], in data set [11], in [12] and in [13] was not below 80% each time. For the same compound, the pest or weed control at 200 ppm in [14] (Phakopsora pachyrhizi (Soybean rust), read-out: control (%)) came out at 100%. The inhibition of growth at 20 ppm in data set [1], in [6], in data set [7] and in [8] was not below 80% throughout. The compound also registered a pest or weed control at 0.6 ppm in [14] (Phakopsora pachyrhizi (Soybean rust), 0.6 ppm) of 0%. In data set [14] (Phakopsora pachyrhizi (Soybean rust), 2 ppm), this compound gave a pest or weed control at 2 ppm of 20%. In [14] (Phakopsora pachyrhizi (Soybean rust), 6 ppm), this compound displayed a pest or weed control at 6 ppm of 50%. In data set [14] (Phakopsora pachyrhizi (Soybean rust), 20 ppm), the pest or weed control at 20 ppm came to 90%. The same compound showed a pest or weed control at 60 ppm in data set [14] (Phakopsora pachyrhizi (Soybean rust), 60 ppm) of 100%.
Turning to `CO/C=C(\Oc1cc(-n2ncc(C(C)C)n2)ccc1C)C(=O)OC` [Compound F-4, methyl (Z)-2-[5-(4-isopropyltriazol-2-yl)-2-methyl-phenoxy]-3-methoxy-prop-2-enoate], the pest or weed control at 200 ppm in data set [10], in [15], in data set [2], in data set [3], in data set [11] and in [12] was not below 80% each time. Moreover, the pest or weed control at 200 ppm in data set [13] is not below 80%. Also, the inhibition of growth at 20 ppm in [1], in [6], in data set [7] and in data set [8] was not below 80% throughout.
As to `CO/C=C(\Oc1cc(-n2nc(Br)c(Br)n2)ccc1C)C(=O)OC` [Compound F-10, methyl (Z)-2-[5-(4,5-dibromotriazol-2-yl)-2-methyl-phenoxy]-3-methoxy-prop-2-enoate], the pest or weed control at 200 ppm in [10], in data set [15], in data set [2], in data set [3], in [11] and in data set [12] was not below 80% throughout. In addition, the pest or weed control at 200 ppm in data set [13] and in [9] was not below 80% each time. In addition, the inhibition of growth at 20 ppm in [6], in data set [7] and in data set [8] was not below 80% each time.
